{"source": "patent US11980596B2", "about": "(priority 2017, dated 2024)", "key": {"glutamate NMDA receptor": {"tested_on": "glutamate NMDA receptor", "experiment": "Affinity for the NMDA receptor in vitro", "format": "binding"}, "[1]": {"experiment": "Pharmacokinetics of intranasal esketamine in healthy subjects (Example 9)", "protocol": "Blood samples (4 mL each) for determination of esketamine and noresketamine plasma concentrations were collected into the appropriate collection tube (e.g., Vacutainer®) at timepoints 0.00, 0.12, 0.20, 0.37, 0.53, 0.67, 0.83, 1.00, 1.25, 1.50, 2.00, 3.00, 4.00, 6.00, 9.00, 12.00, 18.00, and 24.00 h. The total amount of blood to be drawn for clinical laboratory tests and PK evaluations is approximately 327 mL.\nPlasma samples were analyzed for esketamine and noresketamine concentrations using the validated, specific and sensitive liquid chromatography coupled to tandem mass spectrometry (LC-MS/MS) achiral method of Example 8.\nSerial PK blood samples (4 mL each) were collected for a 24-hour period from each subject (Periods 1, 2, and 3). […] Statistical Methods 1.6.4.1. Sample Size\nThe following key parameters of esketamine and noresketamine in plasma were calculated using noncompartmental methods and actual sampling times: Cmax, tmax, AUClast, AUC∞, t1/2,λ, and λz."}, "[2]": {"experiment": "Clinical pharmacokinetics of esketamine (label)"}, "MDD/TRD subjects": {"tested_on": "MDD/TRD subjects", "conditions": "52-week safety study in MDD/TRD subjects (Berman et al., 2011); cited from earlier work"}, "[3]": {"tested_on": "female Sprague-Dawley rats", "experiment": "Single dose neurotoxicity study: mortality, clinical observations, body weight", "format": "in vivo, rat", "conditions": "single subcutaneous dose 1 mg/kg; single dose or repeated dose study", "protocol": "The injection volume was 5 mL/kg.\nBody weight and body weight gain were measured daily."}, "[4]": {"conditions": "noresketamine in plasma after esketamine 28 mg intranasal (A), n = 13"}, "[5]": {"conditions": "noresketamine in plasma after esketamine 56 mg intranasal (B), n = 13"}, "[6]": {"conditions": "noresketamine in plasma after esketamine 56 mg intranasal (B), n = 14"}, "[7]": {"conditions": "noresketamine in plasma after esketamine 84 mg intranasal (C), n = 12"}, "[8]": {"conditions": "noresketamine in plasma after esketamine 84 mg intranasal (C), n = 13"}}, "note": "Marks after values point to notes of the source that are not given here.", "data": [{"molecule": "N[C@]1(c2ccccc2Cl)CCCCC1=O", "note": "[noresketamine]", "values": [{"measurement": "Activity at the NMDA receptor relative to esketamine", "setting": "glutamate NMDA receptor", "result": "less affinity"}, {"measurement": "AUC (AUClast and AUC∞) variability", "setting": "[1]; noresketamine", "result": "17.0% to 21.3"}, {"measurement": "Between-subject variability for Cmax", "setting": "[1]; noresketamine", "result": "25.8% to 33.7"}, {"measurement": "AUClast, mean", "setting": "[1]; [4]", "result": 454, "unit": "ng·h/mL"}, {"measurement": "AUC∞, mean", "setting": "[1]; [4]", "result": 508, "unit": "ng·h/mL"}, {"measurement": "Cmax, mean", "setting": "[1]; [4]", "result": 92.8, "unit": "ng/mL"}, {"measurement": "t1/2, mean", "setting": "[1]; [4]", "result": 7.74, "unit": "h"}, {"measurement": "tmax, median", "setting": "[1]; [4]", "result": 1.25, "unit": "h"}, {"measurement": "AUC∞, mean", "setting": "[1]; [5]", "result": "924^c h * ng/mL"}, {"measurement": "t1/2, mean", "setting": "[1]; [5]", "result": "7.71^c h"}, {"measurement": "AUClast, mean", "setting": "[1]; [6]", "result": 851, "unit": "ng·h/mL"}, {"measurement": "Cmax, mean", "setting": "[1]; [6]", "result": 154, "unit": "ng/mL"}, {"measurement": "tmax, median", "setting": "[1]; [6]", "result": 1.50, "unit": "h"}, {"measurement": "AUC∞, mean", "setting": "[1]; [7]", "result": "1392^b h * ng/mL"}, {"measurement": "t1/2, mean", "setting": "[1]; [7]", "result": "7.48^b h"}, {"measurement": "AUClast, mean", "setting": "[1]; [8]", "result": 1287, "unit": "ng·h/mL"}, {"measurement": "Cmax, mean", "setting": "[1]; [8]", "result": 241, "unit": "ng/mL"}, {"measurement": "tmax, median", "setting": "[1]; [8]", "result": 1.50, "unit": "h"}, {"measurement": "Metabolite/Parent Ratio, AUC∞", "setting": "[1]; noresketamine/esketamine, esketamine 28 mg intranasal (A), n = 12", "result": "3.80^b"}, {"measurement": "Inhibition of CYP3A4", "setting": "CYPs and UGTs", "result": "weak reversible inhibition"}, {"measurement": "Brain-to-plasma ratio, times lower than that of esketamine", "setting": "[2]; human, in vivo", "result": "4- to 6 times"}, {"measurement": "Mean terminal t1/2", "setting": "[2]; noresketamine in plasma", "result": "approximately 8 hours"}]}, {"molecule": "OCCOCCN1CCN(C2=Nc3ccccc3Sc3ccccc32)CC1", "note": "[quetiapine]", "values": [{"measurement": "Discontinuation rate due to adverse events", "setting": "MDD/TRD subjects", "result": 23.7, "unit": "%"}]}, {"molecule": "(+)MK-801 maleate [reference compound]", "values": [{"measurement": "Mortality", "setting": "[3]", "result": "No mortality"}]}]}
